B1: Papain: protease of plant origin (protein, UniProt P00784 134-345, looked up)
Papain: IPEYVDWRQKGAVTPVKNQGSCGSCWAFSAVVTIEGIIKIRTGNLNEYSEQELLDCDRRSYGCNGGYPWSALQLVAQYGIHYRNTYPYEGVQRYCRSREKGPYAAKTDGVRQVQPYNEGALLYSIANQPVSVVLEAAGKDFQLYRGGIFVGPCGNKVDHAVAAVGYGPNYILIKNSWGTGWGENGYIRIKRGTGNSYGVCGLYTSSFYPVKN

Key:
Vero = test: Cytotoxicity induced by protease activity in the presence of serum; format: cell-based, monkey
Procedure: (§1) Cell toxicity of various proteases against cultured cells and influences of serum on the cell toxicity:
(§2) The present inventors have investigated cell-killing effects of various proteases by adding the proteases to various cultured cells, and also at the same time the effect of serum on the cytotoxicity.
(§3) After 24 hours, the cells in the Lab Tech chambers were allowed to culture under three different condition. In group A, they were replaced in RPMI medium with 10% fetal calf serum containing different concentrations of test protease. In group B, the same medium with appropriate protease was used but devoid of serum; In group C, a control medium was used with 10% serum but without protease. One hour and 24 hours after the culturing cytotoxicity, observed microscopically, was determined by counting the number of cells and by morphological investigation.

[1] = tested on: α1 anti-trypsin, α2 antichymotrypsin, α2 macroglobulin, etc.; test: Inhibition of protease activity by protease-inhibiting substances in vivo
Meth A tumor = test: Effectiveness on mouse solid tumor (methylcholanthrene-induced Meth A tumor); format: in vivo, Balb/C mouse; conditions: injected into solid tumors, 0.1 ml, two administrations (once for each day); FIG. 3
Procedure: Anti-tumor actions of various proteases: Effectiveness on mouse solid tumor (i.e., effect on methylcholanthrene-induced tumor (Meth A tumor):
The diameters of the tumors after two administrations (once for each day) were measured.

[2] = tested on: Cervical canal cancer (HeLa); test: Toxicity of various proteases against cultured cells, serum-free; format: cell-based; conditions: absence of serum, 24-hour treatment
Procedure: as §1, §2, §3

[3] = tested on: African green monkey kidney (Epithelial cells); test: as above; format: cell-based; conditions: normal, absence of serum, 24-hour treatment
Procedure: as §1, §2, §3

[4] = tested on: Rat hepatocytes (Liver cells); test: as above; format: cell-based; conditions: normal, absence of serum, 24-hour treatment
Procedure: as §1, §2, §3

[5] = tested on: Human normal T-lymphocytes; test: as above; format: cell-based; conditions: absence of serum, 24-hour treatment
Procedure: as §1, §2, §3

[6] = tested on: Burkitt's lymphoma (Raji); test: as above; format: cell-based; conditions: absence of serum, 24-hour treatment
Procedure: as §1, §2, §3

[7] = tested on: Monkey kidney fibroblast (Vero); test: as above; format: cell-based; conditions: normal cell, absence of serum, 24-hour treatment
Procedure: as §1, §2, §3

[8] = tested on: Human fetus lung fibroblast (HEL); test: as above; format: cell-based; conditions: normal cell, absence of serum, 24-hour treatment
Procedure: as §1, §2, §3

[9] = tested on: Mouse leukemia (RL.male. 1); test: as above; format: cell-based; conditions: absence of serum, 24-hour treatment
Procedure: as §1, §2, §3

Human fibroblast (WISH) = test: as above; format: cell-based; conditions: normal cell, absence of serum, 24-hour treatment
Procedure: as §1, §2, §3

[10] = tested on: Human laryngeal carcinoma (HEp-2); test: as above; format: cell-based; conditions: absence of serum, 24-hour treatment
Procedure: as §1, §2, §3

Rat neuroblastoma (C6) = test: as above; format: cell-based; conditions: absence of serum, 24-hour treatment
Procedure: as §1, §2, §3

[11] = tested on: Human submaxillary gland tumor (HSG); test: as above; format: cell-based; conditions: absence of serum, 24-hour treatment
Procedure: as §1, §2, §3

tumor cell = test: Effect of serum on tumor cell toxicity with time; format: cell-based; conditions: presence of serum; 24-hour vs one-hour treatment
Procedure: as §1, §2, §3

HeLa = test: Cytotoxicity induced by protease activity in the presence of serum; format: cell-based
Procedure: as §1, §2, §3

tumors = test: Anti-tumor action of proteases (general statement); format: in vivo
C6 = test: Cytotoxicity induced by protease activity in the presence of serum; format: cell-based, rat
Procedure: as §1, §2, §3

GMK = test: as above; format: cell-based, African green monkey
Procedure: as §1, §2
as §3, with “A 0.5 ml aliquot of RPMI-1640 medium or Eagle's NEM medium containing 10% bovine fetal calf serum was placed in a Lab Tech plastic chamber of 8-well type, (Falcon Inc.), and suspensions of various tumor cells, each containing about 1×10^4 cells in 0.5 ml, were added thereto and cultured in an incubator at 37° C. in 5% CO2 (95% being air). After” for “After”
(§4) (b) Numerals show reciprocal number of dilution for obtaining the
(§5) equivalent effect after 24hour treatment on the basis of the effect of th […]

HEL = test: as above; format: cell-based, human
Procedure: as §1, §2
as §3, with “A 0.5 ml aliquot of RPMI-1640 medium or Eagle's NEM medium containing 10% bovine fetal calf serum was placed in a Lab Tech plastic chamber of 8-well type, (Falcon Inc.), and suspensions of various tumor cells, each containing about 1×10^4 cells in 0.5 ml, were added thereto and cultured in an incubator at 37° C. in 5% CO2 (95% being air). After” for “After”
as §4, §5

WISH = test: as above; format: cell-based, human
Procedure: as §1, §2, §3

HSG = test: as above; format: cell-based, human
Procedure: as §1, §2, §3

HeP2 = test: as above; format: cell-based, human
Procedure: as §1, §2, §3

Molecule	Cytotoxicity in the presence of serum with time (reciprocal number of dilution for equivalent effect after 24-hour vs one-hour treatment) (Vero)	inhibition of activity by protease-inhibiting substances in vivo [1]	action against tumor propagation (Meth A solid tumor) (Meth A tumor)	Minimum effective concentration [2]	Minimum effective concentration [3]	Minimum effective concentration [4]	Minimum effective concentration [5]	Minimum effective concentration [6]	Minimum effective concentration [7]	Minimum effective concentration [8]	Minimum effective concentration [9]	Minimum effective concentration (Human fibroblast (WISH))	Minimum effective concentration [10]	Minimum effective concentration (Rat neuroblastoma (C6))	Minimum effective concentration [11]	cytotoxic effects in 24-hour treatment than one-hour treatment (tumor cell)	Cytotoxicity in the presence of serum with time (reciprocal number of dilution for equivalent effect after 24-hour vs one-hour treatment) (HeLa)	anti-tumor action / effect on propagation of tumors (tumors)	Cytotoxicity in the presence of serum with time (reciprocal number of dilution for equivalent effect after 24-hour vs one-hour treatment) (C6)	Cytotoxicity in the presence of serum with time (reciprocal number of dilution for equivalent effect after 24-hour vs one-hour treatment) (GMK)	further results
Trypsin	2-4	completely inhibited	no substantial action against the tumor propagation	0.78 µg/mL	0.39 µg/mL	> 5.0 µg/mL	0.39 µg/mL	0.05 µg/mL	1.56 µg/mL	0.20 µg/mL	0.78 µg/mL	1.56 µg/mL	1.56 µg/mL	1.56 µg/mL	0.39 µg/mL	no substantial enhancement	2-4	no anti-tumor action	2	2	Cytotoxicity in the presence of serum with time (reciprocal number of dilution for equivalent effect after 24-hour vs one-hour treatment) (HEL): 2; Cytotoxicity in the presence of serum with time (reciprocal number of dilution for equivalent effect after 24-hour vs one-hour treatment) (WISH): 4; Cytotoxicity in the presence of serum with time (reciprocal number of dilution for equivalent effect after 24-hour vs one-hour treatment) (HSG): 2-4; Cytotoxicity in the presence of serum with time (reciprocal number of dilution for equivalent effect after 24-hour vs one-hour treatment) (HeP2): 0-4
chymotrypsin	–	completely inhibited	–	–	–	–	–	–	–	–	–	–	–	–	–	–	–	no anti-tumor action	–	–	–
pepsin	–	completely inhibited	no substantial action against the tumor propagation	–	–	–	–	–	–	–	–	–	–	–	–	–	–	no anti-tumor action	–	–	–
B1	2-4	completely inhibited	no substantial action against the tumor propagation	0.84 µg/mL	0.38 µg/mL	> 5.0 µg/mL	0.37 µg/mL	0.06 µg/mL	1.58 µg/mL	0.20 µg/mL	0.82 µg/mL	1.52 µg/mL	1.60 µg/mL	1.60 µg/mL	0.38 µg/mL	no substantial enhancement	2-4	no anti-tumor action	2	2	Cytotoxicity in the presence of serum with time (reciprocal number of dilution for equivalent effect after 24-hour vs one-hour treatment) (HEL): 2; Cytotoxicity in the presence of serum with time (reciprocal number of dilution for equivalent effect after 24-hour vs one-hour treatment) (WISH): 2; Cytotoxicity in the presence of serum with time (reciprocal number of dilution for equivalent effect after 24-hour vs one-hour treatment) (HSG): 2-4; Cytotoxicity in the presence of serum with time (reciprocal number of dilution for equivalent effect after 24-hour vs one-hour treatment) (HeP2): 0-4

— US4844897A, “Anti-tumor protease preparations” (Maeda; Hiroshi, priority 1985, dated 1989)
